The source of these data is patent US4820834A, “Benzodiazepine analogs” (priority 1987, dated 1989).

Molecules are shown by their SMILES. Where two headings read alike, the source gives them in different places. A value given as a limit tells only on which side of the number the result lay.

Assay [1] deals with T1, CCK receptor (brain, cerebral cortex) (Cavia porcellus, UniProt H0VZC5).
T1 construct: Cerebral cortex was dissected and used as a receptor source; from tissue; host or cells: guinea pig cerebral cortex membranes (male Hartley)
T1 sequence (H0VZC5 1-426): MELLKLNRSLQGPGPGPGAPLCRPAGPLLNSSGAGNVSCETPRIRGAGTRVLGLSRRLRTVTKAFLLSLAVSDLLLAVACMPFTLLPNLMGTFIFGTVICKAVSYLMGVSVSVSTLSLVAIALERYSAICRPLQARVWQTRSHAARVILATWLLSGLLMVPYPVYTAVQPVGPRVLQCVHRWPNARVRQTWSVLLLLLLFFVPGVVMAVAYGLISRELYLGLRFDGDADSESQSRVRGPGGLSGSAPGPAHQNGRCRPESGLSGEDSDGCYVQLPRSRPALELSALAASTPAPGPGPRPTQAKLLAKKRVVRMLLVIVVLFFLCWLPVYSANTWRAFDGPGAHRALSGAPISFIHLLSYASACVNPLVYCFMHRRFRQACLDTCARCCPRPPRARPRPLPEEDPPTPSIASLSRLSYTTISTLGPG
As to the kind of experiment: biochemical. Type of assay: binding, Male Hartley guinea pigs. As for the experimental part: 2. CCK Recepto Binding (Brain)
CCK-33 was radiolabeled and the binding was Performed according to the description for the Pancreas method with modifications according to Saito et al., J. Neurochem.
Cerebral cortex was dissected and used as a receptor source. Each gram of fresh guinea pig brain tissue was homogenized in 10 ml of Tris/Trizma buffer with a Brinkman polytron PT-10. The homogenates were centrifuged at 42,000 g for 15 minutes. Pellets were resuspended in Tris Buffer, centrifuged as above and resuspended in 200 volumes of binding assay buffer (10 mM N-2-hydroxyethyl-piperazine-N'-2-ethane sulfonic acid (HEPES), 5 mM MgCl2, 0.25 mg/ml bacitracin, 1 mM ethylene glycol-bis-(β-aminoethylether-N,N'-tetraacetic acid) (EGTA), and 0.4% bovine serum albumin (BSA)). […] All assays were run in duplicate or triplicate. The reaction mixtures were incubated at 25° C. for 2 hours and centrifuged in a Beckman Microfuge (4 minutes) immediately after adding 1 ml of ice-cold incubation buffer. The supernatant was aspirated and discarded, pellets were counted with a Beckman gamma 5000.

For assay [2], the target named is T2, Gastrin receptor (gastric glands) (Cavia porcellus, UniProt H0VZC5).
T2 construct: The washed guinea pig gastric glands prepared as above were resuspended; from tissue; host or cells: guinea pig gastric mucosal glands (male Hartley)
T2 sequence (H0VZC5 1-426): T1 sequence (H0VZC5 1-426)
In words: Gastrin Receptor Binding in Guinea Pig Gastric Glands. Further details: species or system guinea pig (male Hartley).

Where [3] appears, read: IC50 ^125 I-CCK Brain, guinea pig cerebral cortex, ^125 I-CCK-33, 25° C., 2 hours.
The mark [4] stands for this setting: IC50 ^125 I-Gastrin Gastric Glands, 25° C., 30 minutes.
The mark [5] stands for this setting: ^125 I-gastrin, 25° C., 30 minutes, read-out: IC50 ^125 I-Gastrin Gastric Glands.

In the case of `O=C(Cc1cccc2sccc12)NC1N=C(c2ccccc2F)c2ccccc2NC1=O` (racemic) [Example 110, 1,3-Dihydro-3-(RS)-(4-thianaPhtheneacetyl)amino-5-(2-fluorophenyl)-2H-1,4-benzodiazepin-2-one], the IC50 (usually the midpoint of a concentration-inhibition curve) in assay [1] (setting [3]) was 3.3 µM; in assay [2] (setting [4]) it was 3.9 µM.
The corresponding values for `O=C(O)CN1C(=O)C(NC(=O)c2cc3ccccc3[nH]2)N=C(c2ccccc2F)c2ccccc21` (racemic) [Example 113, 1-Carboxymethyl-1,3-dihydro-5-(2-fluorophenyl)-3(RS)-(2-indolecarbonylamino)-2H-1,4-benzodiazepin-2-one] are 5.6 µM and 0.39 µM.
The corresponding values for `O=C(NC1N=C(c2ccccc2F)c2ccccc2NC1=O)c1cc2cc(F)ccc2[nH]1` (racemic) [Example 114, 1,3-Dihydro-3-(RS)-(5-fluoroindole-2-carbonylamino)-5-(2-fluorophenyl)-2H-1,4-benzodiazepin-2-one] are 12 µM and 4.8 µM.
The corresponding values for `O=C(NC1N=C(c2ccccc2F)c2ccccc2NC1=O)c1cc2cc(Cl)ccc2[nH]1` (racemic) [Example 118, 1,3-Dihydro-3-(RS)-(5-Chloroindole-2-carbonylamino)-5-(2-fluorophenyl)-2H-1,4-benzodiazepin-2-one] are 38 µM and more than 10 µM.
For `CN(C(=O)c1cc2ccccc2[nH]1)C1N=C(c2ccccc2)c2ccccc2NC1=O` (racemic) [Example 119, 3-(RS)-[N-(2-indolecarbonyl)-N-methylamino]-1,3-dihydro-5-phenyl-2H-1,4-benzodiazepin-2-one], the IC50 in assay [1] (setting [3]) was 33 µM; in assay [2] (setting [4]), more than 10 µM.
The like results for `O=C(NC1N=C(c2ccccc2F)c2ccccc2NC1=O)c1cc2cc(Br)ccc2[nH]1` (racemic) [Example 120, 1,3-Dihydro-3-(RS)-(5-Bromoindole-2-carbonylamino)-5-(2-fluorophenyl)-2H-1,4-benzodiazepin-2-one] were, in that order, 50 µM and more than 10 µM.
Turning to `O=C(C=Cc1ccccc1)NC1N=C(c2ccccc2F)c2ccccc2NC1=O` (racemic) [Example 121, 3-(RS)-Cinnamoylamino-1,3-dihydro-5-(2-fluorophenyl)-2H-1,4-benzodiazepin-2-one], the IC50 in assay [1] (guinea pig cerebral cortex, ^125 I-CCK-33, 25° C., 2 hours; read-out: IC50 ^125 I-CCK Brain) stood at 5.5 µM; in assay [2] (setting [5]) it was 3.8 µM.
As for `O=C(NC1N=C(c2ccccc2F)c2ccccc2NC1=O)c1cc2cc(O)ccc2[nH]1` (racemic) [Example 122, 1,3-Dihydro-3-(RS)-(5-hydroxy-2-indolylcarbonyl)amino-5-(2-fluorophenyl)-2H-1,4-benzodiazepin-2-one], the IC50 in assay [1] (setting [3]) came out at 16 µM; in assay [2] (setting [4]), 29 µM.
The corresponding values for `COc1ccc2[nH]c(C(=O)NC3N=C(c4ccccc4F)c4ccccc4NC3=O)cc2c1` (racemic) [Example 126, 1,3-Dihydro-3-(RS)-(5-methoxyindole-2-carbonylamino)-5-(2-fluorophenyl)-2H-1,4-benzodiazepin-2-one] are 29 µM and more than 10 µM.
The like results for `Cn1c(C(=O)NC2N=C(c3ccccc3F)c3ccccc3NC2=O)cc2ccccc21` (racemic) [Example 127, 1,3-Dihydro-3-(RS)-(1-methylindole-2-carbonylamino)-5-(2-fluorophenyl)-2H-1,4-benzodiazepine-2-one] were, in that order, 7 µM and 6.3 µM.
With `O=C(NC1N=C(c2ccccc2F)c2ccccc2NC1=O)c1cc2ccccc2o1` (racemic) [Example 128, 1,3-Dihydro-5-(2-fluorophenyl)-3-(RS)-(2-benzofurancarbonylamino)-2H-1,4-benzodiazepin-2-one], the IC50 in assay [1] (read-out: IC50 ^125 I-CCK Brain; guinea pig cerebral cortex, ^125 I-CCK-33, 25° C., 2 hours) turned out to be 32 µM; in assay [2] (read-out: IC50 ^125 I-Gastrin Gastric Glands, 25° C., 30 minutes), 11 µM.
On to `CCOC(=O)CN1C(=O)C(NC(=O)c2ccc(Cl)cc2)N=C(c2ccccc2F)c2ccccc21` (racemic) [Example 129, 1-Ethoxycarbonylmethyl-1,3-dihydro-3(RS)-(4-chloro-phenylcarbonyl)amino-5-(2-fluorophenyl)-2H-1,4-benzodiazepin-2-one], for which the values for the IC50 in assay [1] (setting [3]) and in assay [2] (setting [4]) were 1.9 µM and 0.69 µM, respectively.
The like results for `O=C(NC1N=C(c2ccccc2)c2ccccc2NC1=O)c1ccc(Cl)cc1` (racemic) [Example 130, 1,3-Dihydro-3-(RS)-(4-chlorophenylcarbonyl)amino-5-phenyl-2H-1,4-benzodiazepin-2-one] were, in that order, more than 40 µM and 8.2 µM.
The like results for `O=C(O)CN1C(=O)C(NC(=O)c2ccc(Cl)cc2)N=C(c2ccccc2F)c2ccccc21` (racemic) [Example 132, 1-Carboxymethyl-1,3-dihydro-3-(RS)-(4-chlorophenyl-carbonyl)amino-5-(2-fluorophenyl)-2H-1,4-benzodiazepin-2-one] were, in that order, more than 100 µM and 8.2 µM.
The corresponding values for `O=C(NC1N=C(c2ccccc2F)c2ccccc2NC1=O)c1ccc(C(F)(F)F)cc1` (racemic) [Example 134, 1,3-Dihydro-5-(2-fluorophenyl)-3-(RS)-(p-trifluoro-methylbenzoylamino)-2H-1,4-benzodiazepin-2-one] are 40 µM and 9.5 µM.
Turning to `Cc1ccc(C(=O)NC2N=C(c3ccccc3F)c3ccccc3NC2=O)cc1` (racemic) [Example 135, 1,3-Dihydro-5-(2-fluorophenyl)-3-(RS)-(p-methylbenzoylamino)-2H-1,4-benzodiazepin-2-one], the IC50 was more than 40 µM in assay [1] (setting [3]) and 5 µM in assay [2] (setting [4]).
Consider `COc1ccc(C(=O)NC2N=C(c3ccccc3F)c3ccccc3NC2=O)cc1` (racemic) [Example 136, 1,3-Dihydro-5-(2-fluorophenyl)-3-(RS)-(p-methoxybenzoylamino)-2H-1,4-benzodiazepin-2-one], for which the results for the IC50 in assay [1] (setting [3]) and in assay [2] (setting [4]) were more than 40 µM and 5.4 µM, respectively.
Regarding `O=C(NC1N=C(c2ccccc2)c2ccccc2NC1=O)c1ccccc1Cl` (racemic) [Example 137, 3-(RS)-(o-Chlorobenzoylamino)-1,3-dihydro-5-phenyl-2H-1,4-benzodiazepin-2-one], the results for the IC50 in assay [1] (setting [3]) and in assay [2] (setting [4]) were more than 40 µM and 52 µM, respectively.
On to `CN1C(=O)C(N(C)C(=O)c2ccccc2Cl)N=C(c2ccccc2)c2ccccc21` (racemic) [Example 138, 3-(RS)-(N-(o-Chlorobenzoyl)-N-methylamino)-1,3-dihydro-1-methyl-5-phenyl-2H-1,4-benzodiazepin-2-one], for which the IC50 in assay [1] (setting [3]) was 100 µM; in assay [2] (setting [4]) it was more than 100 µM.
Take `CN1C(=O)C(NC(=O)c2ccccc2Cl)N=C(c2ccccc2)c2ccccc21` (racemic) [Example 139, 3-(RS)-(o-Chlorobenzoylamino)-1,3-dihydro-1-methyl-5-phenyl-2H-1,4-benzodiazepin-2-one]: the IC50 in assay [1] (setting [3]) was more than 100 µM; in assay [2] (setting [5]) it was 30 µM.
In the case of `O=C(NC1N=C(c2ccccc2)c2ccccc2NC1=O)c1cccc(Cl)c1` (racemic) [Example 140, 3-(RS)-(m-Chlorobenzoylamino)-1,3-dihydro-5-phenyl-2H-1,4-benzodiazepin-2-one], the figures for the IC50 in assay [1] (setting [3]) and in assay [2] (setting [4]) were 75 µM and 4.3 µM, respectively.
The like results for `O=C(NC1N=C(c2ccccc2)c2ccccc2NC1=O)c1ccc(Cl)c(Cl)c1` (racemic) [Example 141, 3-(RS)-(3,4-Dichlorobenzoylamino)-1,3-dihydro-5-phenyl-2H-1,4-benzodiazepin-2-one] were, in that order, more than 40 µM and 25 µM.
The like results for `CN1C(=O)C(NC(=O)c2ccc(Cl)cc2)[N+]([O-])=C(c2ccccc2F)c2ccccc21` (racemic) [Example 142, 3-(RS)-(p-Chlorobenzoylamino)-1,3-dihydro-5-(2'-fluorophenyl)-1-methyl-4-oxo-2H-1,4-benzodiazepin-2-one] were, in that order, 18 µM and 2.4 µM.
The corresponding values for `CSc1ccc(C(=O)NC2N=C(c3ccccc3)c3ccccc3NC2=O)cc1` (racemic) [Example 143, 1,3-Dihydro-5-Phenyl-3-(RS)-(4'-methylthiobenzoylamino)-2H-1,4-benzodiazepin-2-one] are 23 µM and 8 µM.
